Measurements from US9394544B2, “Ameliorating oxidative stress in neurodegenerative disease via Nox1 targeting” (University of Central Florida Research Foundation, Inc., priority 2013, dated 2016).

Assays:
SN DA neurons = test: Stereologic counting of TH-immunostained DA neurons in the SN, 6-OHDA rat model; assay type: in vivo; details: direct injection into the rat SN, in 2 weeks
Experimental: The experiments were carried out on rats, in accordance with the NIH Guide for the Care and Use of Laboratory Animals. All procedures were approved by the local Animal Care and Use Committee. Female Sprague Dawley (SD) rats (Charles River; 8-weeks-old at the time of the beginning of AAV expression or 6-OHDA treatment, 2 or 3 per cage) were maintained in a temperature/humidity-controlled environment under a 12 h light/dark cycle with free access to food and water. All rats were respectively allocated into […], Nox1 shRNA/AAV, T17N Rac1/AAV, and scramble (scb) shRNA/AAV or empty vector/AAV as control groups. Rats were deeply anesthetized (ketamine and xylazine mixture 30 mg/kg, i.p.) and placed in a rat stereotaxic apparatus, a site in the right substantia nigra (SN) [coordinate: anteroposterior (AP), −5.3 mm; mediolateral (ML), +2.0 mm; dorsoventral (DV), −5.8 mm] was selected to inject scb shRNA/AAV (n=8), Nox1 shRNA/AAV (n=16), T17N Rac1/AAV (n=16), and empty vector/AAV (n=28), respectively, according to the grouping. […]
A set consisting of six sections, 360 μm apart, were prepared. […] Numbers of TH-immunoreactive cells in the substantia nigra (SN) were counted using the optical fractionator (West 1990). […] The coefficient of error and coefficient of variation were also determined.

α-synuclein = test: α-Synuclein aggregation (immunocytochemistry, PK resistance, A11) in N27 cells exposed to PQ; assay type: cell-based, rat; details: for increase in aggregated α-synuclein-positive cells vs control: 24 h
Experimental: The same Nox1 shRNA used for AAV2 construct was cloned into a pLVX-shRNA2 vector containing zsGreen1 (Clontech). To make lentiviral particles, ViraPower Lentiviral Expression System (Invitrogen) was used. […]. For 6-well plates, 8 μg of each plasmid was mixed in a 1:1:1:1 ratio in 100 μl of Xfect polymer buffer and then added to the cells. After 48 h, the viral-containing medium was harvested and centrifuged briefly at 500×g for 10 min to remove cellular debris and supernatant recovered and kept at −80° C. until used.
After each respective treatment, cells were fixed in 4% paraformaldehyde (PFA) for 20 min and permeabilized with 0.1% Triton X-100 in PBS for 10 min. Blocking was performed by incubation with 20% goat or donkey serum in PBS containing 0.1% Tween 20 for 90 min at room temperature. The cells were then incubated for 120 min at room temperature with the following primary antibodies, according to the aim of the experiment: goat anti-Nox1 (1:50), rabbit anti-TH (1:10,000), mouse anti-Flag (1:150), mouse anti-α-synuclein (1:150), and rabbit anti-A11 (2.5 μg/ml). After washing, cells were incubated for 120 min with the appropriate secondary antibodies conjugated to Alexa Fluor 647 or Alexa Fluor 488 (1:1000). For nuclear visualization coverslips were incubated with 2 μM Hoechst for 10 min. For quantification of Flag^+ and α-synuclein^+ cells, >30 different fields per coverslip were analyzed on a Nikon inverted fluorescent microscope under a 20× and 40× magnification.
Immunocytochemistry for proteinase K (PK)-resistant α-synuclein was performed based on a methodology reported previously (Neumann et al., 2002), with some modifications. Briefly, fixed cells were permeabilized with 0.1% Tween 20 and then digested for 30 min at 37° C. with PK (10 μg/ml). PK was inactivated with 3 M guanidine thiocyanate in 10 mM Tris-HCl solution for 10 min. Between each step, cells were washed gently three times with PBS. Cells were then incubated for 60 min with blocking solution containing 10% donkey serum followed by an overnight incubation with mouse anti-α-synuclein antibody (1:150). The day after, cells were incubated with secondary antibodies conjugated to Alexa Fluor 647 donkey anti-mouse for 60 min and with 2 μM Hoechst solution for 10 min. For PK-resistant α-synuclein evaluation in rat SN, 40 μm sections from 4% PFA fixed tissues were washed twice in distillated water with 0.1% Tween 20, and then incubated for 30 min in TBST. The tissues were incubated for 90 min at 55° C. with 50 μg/ml PK in TBST and further washed three times in TBS. PK was denatured by incubating the tissues in a 3 M guanidine thiocyanate in 10 mM Tris-HCl solution for 10 min. […]

Compound	loss of TH-positive SNDA neurons (SN DA neurons)	A11 immunoreactivity vs controls (α-synuclein)	PK-resistant α-synuclein immunoreactivity (α-synuclein)	increase in aggregated α-synuclein-positive cells vs control (α-synuclein; 800 μM)	increase in aggregated α-synuclein-positive cells vs control (α-synuclein; 1000 μM)
NCCc1cc(O)c(O)cc1O [6-OHDA, 6-hydroxydopamine]	90%-95%				
C[n+]1ccc(-c2cc[n+](C)cc2)cc1 [PQ, paraquat]		high A11 immunoreactivity	higher PK-resistant α-synuclein immunoreactivity	62%	64%
